# Structures can show the parent of a compound that is named as a salt.
# Columns and labels:
# [1] = tested on: TNF-α secreted by TPA-induced U937 cells; experiment: TNF-α immunoassay on U937 cell culture media; assay type: cell-based
# Procedure: One function of macrophages is to modulate the activity of other inflammatory cells through various cytokine molecules.
# TNF-α levels in the cell culture media were determined by using the TNF-α Immunoassay from R&D Systems (Cat. # DTA50) according to the manufacturer's protocol.
# dogs [2] = experiment: 91-day oral study in dogs; assay type: in vivo
# rats [3] = experiment: 28-day study in rats; assay type: in vivo
# Procedure: A 28-day study in rats was also carried out at 0, 50, 500 and 2000 mg/kg/day.
# human patients = experiment: single, escalating dose human clinical trial (safety); assay type: in vivo; conditions: oral, 50, 100, 200 and 400 mg BID
# dogs [4] = experiment: acute and seven-dose toxicity in dogs (capsules); conditions: dog, in vivo
# Procedure: Therefore, these dogs were subsequently administered seven consecutive doses of 1000 mg/kg/day.
# rats [5] = experiment: seven-day dose-range finding study in rats; assay type: in vivo; conditions: seven days
# PDE5 = biological target: T1, PDE5 (Homo sapiens, UniProt O76074); experiment: competitive binding (with cGMP) to PDE5
# T1 construct: partially purified cGMP-specific PDE isolated from HT-29 cells; endogenous in cells; host or cells: HT-29
# [6] = biological target: T2, GST-cGB-PDE5 fusion protein (cGMP binding sites of human PDE5A) (Homo sapiens, UniProt O76074); experiment: cGMP binding assay with GST-cGB-PDE5 fusion protein
# T2 construct: made in house; host or cells: E. coli BL21 (DE3)
# Source text: RT-PCR method is used to obtain the cGB domain of PDE5 with forward and reverse primers designed from bovine PDE5A cDNA sequence (McAllister-Lucas L. M. et al, J. Biol. Chem. 268, 22863-22873, 1993) and the selection among PDE 1-10 families. 5′-3′, Inc. kits for total RNA followed by oligo (dT) column purification of mRNA are used with HT-29 cells. […] It is then cloned into pGEX-5X-3 glutathione-S-transferase (GST) fusion vector (Pharmacia Biotech )with tac promoter, and EcoR1 and XhoI cut sites. The fusion vector is then transfected into E. Coli BL21 (DE3) bacteria (Invitrogen). The transfected BL21 bacteria is grown to log phase, and then IPTG is added as an inducer. The induction is carried at 20° C. for 24 hrs. The bacteria are harvested and lysed. The soluble cell lysate is incubated with GSH conjugated Sepharose 4B (GSH-Sepharose 4B). The GST-cGB-PDE5 fusion protein can bind to the GSH-Sepharose beads, and the other proteins are washed off from beads with excessive cold PBS.
# Then, the mixture is transferred to Brandel MB-24 cell harvester with GF/B as the filter membrane followed by 2 washes with 10 mL of cold 5 mM potassium buffer(pH 6.8). The membranes are then cut out and transferred to scintillation vials followed by the addition of 1 mL of H2O and 6 mL of Ready Safe™ liquid scintillation cocktail to each vial. The vials are counted on a Beckman LS 6500 scintillation counter.
# The quenching by filter membrane or other debris are also calibrated.
# PDE1 = experiment: PDE inhibition, similar protocols: PDE1; assay type: biochemical
# rats [7] = experiment: acute toxicity study in rats; conditions: rat, in vivo
# PDE4 = experiment: PDE inhibition, similar protocols: PDE4; assay type: biochemical
# rats [8] = experiment: long-term (91-day) safety assessment study in rats; assay type: in vivo
# Source text: These changes were not associated with any gross clinical abnormality.
# U937 cells = experiment: apoptosis induction of U937 cells (active caspase 3 immunofluorescence); assay type: cell-based; design: apoptosis as reflected by active caspase 3 (FIG. 8): dose or concentration left out as unconfirmed; conditions: for Percentage of apoptotic cells / Number of apoptotic cells: 24 hrs; for Number of apoptotic cells: active caspase 3, 500 cells scored
# Procedure: U937 cells (from ATCC Rockville, Md.) were grown in RPMI media supplemented with 5% FCS, glutamine, antibiotic/antimycotic and sodium pyruvate. Total RNA was isolated from two U937 cultures, one treated with 5 nM TPA for 48 hours and one grown in normal media as listed above, using the Rouche High Pure RNA Isolation Kit (cat# 1 828 665) as per manufacturers protocol. cDNA was then synthesized from the total RNA using GibcoBRL SuperscriptII (Cat # 18064-022) reverse transcriptase as per manufacturers protocol. The resulting cDNA was used as a template for RT-PCR reactions using primer sets specific for PDE2 (forward: […], reverse: […]) or PDE5 (forward: […], reverse: […]). mRNA for PDE2 and 5 were both present in the untreated U937 cells. Upon treatment with TPA, the relative amounts of PDE2 mRNA increased 5 fold. Therefore, U937 cells treated with TPA and driven to differentiate into an activated macrophage like state have elevated levels of PDE2 mRNA (see FIG. 1).
# The presence of PDE2 and PDE5 protein within U937 cells was confirmed by indirect immunofluorescence (IIF). U937 cells were cultured as above. Two U937 cultures, one grown in the presence of 5 nM TPA for 48 hours and one grown in normal media were processed. All cultures were collected by centrifugation (Shandon Cytospin, 2 minutes @ 600 rpm) onto poly-L lysine-coated slides and immediately fixed in fresh 3% paraformaldehyde buffered in PBS for 10 minutes. Adherent cultures were grown on coverslips and fixed as above. Cells were permeablized in 0.2% triton-100 for 2 minutes. Slides were blocked with blocking buffer (5% goat serum, 5% glycerol, 1% gelatin from cold water fish skin and 0.04% NaN3 in PBS) for 1 hour at room temperature.
# Adherent cells were dislodged by treatment with trypsin EDTA for 5 minutes at 37° C. Cells were then processed for IIF as described above, except that an antibody specific for active caspase 3 was used (as per manufacturer's protocol) instead of antibodies to PDE2 or 5 (Promega Cat. #G7481). The anti-active caspase 3 antibody was diluted 1:200 in blocking buffer and processed according to the manufacturer's protocol. The resulting slides were observed under a fluorescent microscope and a digital images were obtained.
# The level of apoptosis in U937 cells was quantified by scoring 500 consecutive cells for the presence of active caspase 3.
# The cells were harvested and processed for IIF as described above using an antibody that specifically recognizes active caspase 3. […] Therefore, the inhibition of only PDE4 or PDE5 alone (i.e. without the inhibition of PDE2) is not sufficient to induce apoptosis in U937 cells.
# [9] = 28 days, 50, 500 and 2000 mg/kg/day
# [10] = U937, TPA 5 nM, 16 hrs, then 1 uM
structure (smiles),measurement,setting,value
"CC1=C(CC(=O)NCc2ccccc2)c2cc(F)ccc2/C1=C\c1ccncc1 [Compound 38, (Z)-5-Fluoro-2-Methyl-(4-Pyridylidene)-3-(N-Benzyl) Indenylacetamide Hydrochloride]",level of TNF-α secreted (FIG. 12),[1],significantly reduced
same,tolerability,dogs [2]; 91 days,well tolerated
same,feces observation,"dogs [2]; 91 days, 150 and 300 mg/kg/day",Orange discoloration of the feces
same,body weights,"dogs [2]; 91 days, highest dose group",Slightly lowered body weights
same,liver weights,"dogs [2]; 91 days, highest dose group",increased liver weights
same,microscopic alterations (liver),"dogs [2]; 91 days, highest dose group",no microscopic alterations
same,route of elimination (suggested by feces colour),"dogs [2]; 91 days, oral",most of Compound 38 was being eliminated via the feces
same,toxicological effects,"dogs [2]; oral, 91 consecutive days, 50, 150 and 300 mg/kg/day",no toxicological effects
same,macroscopic tissue changes at necropsy,rats [3]; 28 days,No macroscopic tissue changes
same,liver weights,"rats [3]; 28 days, 2000 mg/kg/day",statistically significant increase in liver weights
same,thyroid weights,"rats [3]; 28 days, 2000 mg/kg/day",statistically significant increases in thyroid weights
same,"body weight changes, ophthalmoscopic examinations, hematological and blood chemistry values, urinalysis",rats [3]; [9],unremarkable
same,clinical observations,rats [3]; [9],no abnormal clinical observations
same,slight liver and thyroid weight increases,"rats [3]; 28 days, lower doses",not statistically significant
same,histopathological evaluation of tissues,"rats [3]; 28 days, small number of animals at 2000 mg/kg/day, one female at 500 mg/kg/day","traces of follicular cell hypertrophy, increased numbers of mitotic figures (suggestive of possible cell proliferation) in the thyroid gland and mild centrilobular hypertrophy in the liver"
same,side effects,human patients,no significant side effects
same,signs of toxicity,dogs [4]; 1000 mg/kg,no signs of toxicity
same,signs of drug-related effects,dogs [4]; 1000 mg/kg/day,At no time in either dosing phase were any obvious signs of drug-related effects observed
same,signs of toxicity,rats [5]; 50 mg/kg/day,no observable signs of toxicity
same,treatment-related effects,rats [5]; 500 mg/kg/day,increase in absolute and relative liver weights in female rats
same,treatment-related effects,rats [5]; 2000 mg/kg/day,"labored breathing and/or abnormal respiratory sounds, decreased weights gains and food consumption in male rats, and increased liver weights in female rats"
same,"hematology, blood chemistry, microscopic pathology","rats [5]; any dose level (50, 500, 2000 mg/kg/day)",No hematological or blood chemistry changes nor any microscopic pathology changes
same,competitive (with cGMP) binding to PDE5,PDE5,does competitively (with cGMP) bind
same,binding to the cGMP-binding site of PDE5,[6],does not bind
same,IC50,PDE1,3 µM
same,body weight gain,"rats [7]; ip, 1000 mg/kg",reduced body weight gain
same,necropsy findings,"rats [7]; ip, 1000 mg/kg",mesenteric adhesions seen in some animals
same,body weight gains,"rats [7]; po, 2000 mg/kg",slightly reduced
same,IC50,PDE4,6 µM
same,clinical biochemistry and hematology,rats [8]; 91 days,no changes in clinical biochemistry and hematology
same,"microscopic finding, follicular cells","rats [8]; 91 days, 500 mg/kg/day",follicular cell hypertrophy
same,"microscopic finding, kidneys","rats [8]; 91 days, 200 and 500 mg/kg/day",increase in accumulation of hyalin droplets in the kidneys
same,"microscopic finding, liver","rats [8]; 91 days, 200 and 500 mg/kg/day",slight hepatocellular hypertrophy
same,organ weights,"rats [8]; 91 days, males and females at 200 and 500 mg/kg/day",dose-related trend to increased liver and thyroid/parathyroid weights
same,toxicological effects,"rats [8]; oral, 91 consecutive days, 50, 200 and 500 mg/kg/day",did not produce any major toxicological effects
same,Percentage of apoptotic cells,U937 cells; [10],78%
same,Number of apoptotic cells,U937 cells; [10],392/500
same,Percentage of apoptotic cells,"U937 cells; U937, no TPA treatment, 1 uM",75%
same,Number of apoptotic cells,"U937 cells; U937, no TPA treatment, 1 uM",375/500
same,apoptosis as reflected by active caspase 3 (FIG. 8),U937 cells; U937 cells treated with compound 38,undergoing apoptosis
same,induction of apoptosis,U937 cells; differentiated and non-differentiated U937 cell line,causes the induction of apoptosis
